Activity calls are given as the source filed them. The calls are words filed in the database; no cut-off is given here. Residues, ends and D or L forms follow the SMILES beside them.
How the values were obtained:
[1] = molecular target: Relaxin-3 receptor 2 (Homo sapiens, UniProt Q8TDU9); test: Agonist activity at RXFP4 expressed in CHO-K1 cells assessed as inhibition of forskolin-induced cAMP accumulation after 6 hrs by beta galactosidase reporter gene assay; format: functional, cell-based
[2] = molecular target: T1, Relaxin receptor 1 (Homo sapiens, UniProt Q9HBX9); test: Displacement of europium-labelled H2 relaxin from RXFP1 expressed in HEK-293T cells; format: cell-based
T1 sequence (Q9HBX9 whole entry): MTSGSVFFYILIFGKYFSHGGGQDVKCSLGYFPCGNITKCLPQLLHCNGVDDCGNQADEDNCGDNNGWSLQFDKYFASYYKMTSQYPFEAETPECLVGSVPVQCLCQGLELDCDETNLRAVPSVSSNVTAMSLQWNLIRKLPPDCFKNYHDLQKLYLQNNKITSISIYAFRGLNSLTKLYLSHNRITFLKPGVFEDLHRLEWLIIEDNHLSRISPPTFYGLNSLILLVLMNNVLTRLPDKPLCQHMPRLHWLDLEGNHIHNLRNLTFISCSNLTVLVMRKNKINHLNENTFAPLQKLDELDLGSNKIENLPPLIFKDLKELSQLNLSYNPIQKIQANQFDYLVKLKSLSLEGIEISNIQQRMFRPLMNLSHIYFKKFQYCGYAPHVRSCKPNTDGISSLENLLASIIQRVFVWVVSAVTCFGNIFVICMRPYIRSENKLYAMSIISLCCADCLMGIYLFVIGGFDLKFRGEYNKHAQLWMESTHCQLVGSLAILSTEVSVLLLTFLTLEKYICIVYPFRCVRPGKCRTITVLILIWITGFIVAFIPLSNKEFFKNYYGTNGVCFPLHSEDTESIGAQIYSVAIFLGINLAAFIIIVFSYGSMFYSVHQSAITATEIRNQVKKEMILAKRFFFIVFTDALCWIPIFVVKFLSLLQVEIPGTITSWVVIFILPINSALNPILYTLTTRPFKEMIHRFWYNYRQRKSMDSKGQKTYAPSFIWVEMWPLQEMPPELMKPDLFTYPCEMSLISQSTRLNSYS

[3] = molecular target: T2, Relaxin receptor 1 (Homo sapiens) (UniProt Q9HBX9); test: Activation of RXFP1 expressed in HEK-293T cells assessed as induction of cAMP accumulation after 6 hrs by beta galactosidase reporter gene assay; format: functional, cell-based
T2 sequence (whole entry): T1 sequence (Q9HBX9 whole entry)

[4] = molecular target: T3, Relaxin-3 receptor 1 (Homo sapiens, UniProt Q9NSD7); test: Displacement of europium-labelled H3 relaxin-B chain/INSL-5 chain from RXFP3 expressed in CHO-K1 cells; format: cell-based
T3 sequence (Q9NSD7 whole entry): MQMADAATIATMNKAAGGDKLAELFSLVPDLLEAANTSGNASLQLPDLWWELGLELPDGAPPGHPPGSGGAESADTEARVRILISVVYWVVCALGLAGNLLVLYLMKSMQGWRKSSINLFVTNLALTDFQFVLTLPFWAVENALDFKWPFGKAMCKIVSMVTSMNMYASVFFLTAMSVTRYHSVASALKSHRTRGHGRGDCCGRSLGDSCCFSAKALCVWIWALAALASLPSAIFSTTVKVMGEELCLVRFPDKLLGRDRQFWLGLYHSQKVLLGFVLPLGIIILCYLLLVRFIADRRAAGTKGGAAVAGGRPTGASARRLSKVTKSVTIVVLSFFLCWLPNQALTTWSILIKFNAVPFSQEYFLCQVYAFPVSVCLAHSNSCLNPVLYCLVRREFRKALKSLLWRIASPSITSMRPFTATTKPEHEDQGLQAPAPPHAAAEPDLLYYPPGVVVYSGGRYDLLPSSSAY

[5] = molecular target: T3, Relaxin-3 receptor 1; test: Agonist activity at RXFP3 expressed in CHO-K1 cells assessed as inhibition of forskolin-induced cAMP accumulation after 6 hrs by beta galactosidase reporter gene assay; format: functional, cell-based

Chain of Relaxin-3 receptor 2 (Q8TDU9 whole entry): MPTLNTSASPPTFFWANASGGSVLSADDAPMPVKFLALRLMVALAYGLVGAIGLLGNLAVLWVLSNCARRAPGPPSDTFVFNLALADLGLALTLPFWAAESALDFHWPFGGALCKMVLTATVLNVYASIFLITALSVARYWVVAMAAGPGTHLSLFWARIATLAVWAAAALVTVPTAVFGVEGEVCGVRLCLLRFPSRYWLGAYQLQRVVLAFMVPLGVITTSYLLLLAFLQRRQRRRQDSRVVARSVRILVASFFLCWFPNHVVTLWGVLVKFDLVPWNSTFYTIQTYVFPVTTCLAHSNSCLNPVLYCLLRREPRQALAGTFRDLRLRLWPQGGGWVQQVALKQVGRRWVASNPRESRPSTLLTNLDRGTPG

| Molecule | Ki [4] | also measured |
| --- | --- | --- |
| CC[C@H](C)[C@@H]1NC(=O)[C@H](Cc2ccccc2)NC(=O)[C@H](CCC(=O)O)NC(=O)[C@H](CCCNC(=N)N)NC(=O)CNC(=O)[C@@H](NC(=O)[C@H](CC(C)C)NC(=O)[C@H](CCCNC(=N)N)NC(=O)[C@@H](NC(=O)CN)C(C)C)CSSC[C@H](N)C(=O)N[C@@H](CCCCN)C(=O)N[C@@H](Cc2c[nH]c3ccccc23)C(=O)NCC(=O)N[C@@H](C)C(=O)N[C@@H](CO)C(=O)N[C@@H](CCCCN)C(=O)N[C@@H](CO)C(=O)N[C@@H](CCC(=O)O)C(=O)N[C@@H]([C@@H](C)CC)C(=O)N[C@@H](CO)C(=O)N[C@@H](CO)C(=O)N[C@@H](CC(C)C)C(=O)N[C@H](C(=O)O)CSSC[C@@H](C(=O)NCC(=O)NCC(=O)N[C@@H](CO)C(=O)N[C@@H](CCCNC(=N)N)C(=O)N[C@@H](Cc2c[nH]c3ccccc23)C(=O)O)NC(=O)[C@H]([C@@H](C)O)NC(=O)[C@H](Cc2ccccc2)NC(=O)[C@H]([C@@H](C)CC)NC(=O)[C@H](C(C)C)NC(=O)[C@H](C)NC(=O)[C@H](CCCNC(=N)N)NC1=O |  | IC50 [1]: 14.1 nM; Ki [2]: > 10 µM; pIC50 [3]: inactive |
| H-RAAPYGVRLSGREFIRAVIFTSRGGSRW-OH | 2570 nM |  |
| CC[C@H](C)[C@@H]1NC(=O)[C@H](Cc2ccccc2)NC(=O)[C@H](CCC(=O)O)NC(=O)[C@H](CCCNC(=N)N)NC(=O)CNC(=O)[C@@H](NC(=O)[C@H](CC(C)C)NC(=O)[C@@H](N)CCCNC(=N)N)CSSC[C@H](N)C(=O)N[C@@H](CCCCN)C(=O)N[C@@H](Cc2c[nH]c3ccccc23)C(=O)NCC(=O)N[C@@H](C)C(=O)N[C@@H](CO)C(=O)N[C@@H](CCCCN)C(=O)N[C@@H](CO)C(=O)N[C@@H](CCC(=O)O)C(=O)N[C@@H]([C@@H](C)CC)C(=O)N[C@@H](CO)C(=O)N[C@@H](CO)C(=O)N[C@@H](CC(C)C)C(=O)N[C@H](C(=O)O)CSSC[C@@H](C(=O)NCC(=O)NCC(=O)N[C@@H](CO)C(=O)N[C@@H](CCCNC(=N)N)C(=O)N[C@@H](Cc2c[nH]c3ccccc23)C(=O)O)NC(=O)[C@H]([C@@H](C)O)NC(=O)[C@H](Cc2ccccc2)NC(=O)[C@H]([C@@H](C)CC)NC(=O)[C@H](C(C)C)NC(=O)[C@H](C)NC(=O)[C@H](CCCNC(=N)N)NC1=O |  | pIC50 [3]: inactive |
| H-RAAPYGVRLSGREFIRAVIFTRGGSRW-OH | 3390 nM |  |
| H-RAAPYGVRLSGREFIRKVIFTSGGSRW-OH | > 10000 nM |  |
| CC[C@H](C)[C@@H]1NC(=O)[C@H](Cc2ccccc2)NC(=O)[C@H](CCC(=O)O)NC(=O)[C@H](CCCNC(=N)N)NC(=O)CNC(=O)[C@@H](N)CSSC[C@H](N)C(=O)N[C@@H](CCCCN)C(=O)N[C@@H](Cc2c[nH]c3ccccc23)C(=O)NCC(=O)N[C@@H](C)C(=O)N[C@@H](CO)C(=O)N[C@@H](CCCCN)C(=O)N[C@@H](CO)C(=O)N[C@@H](CCC(=O)O)C(=O)N[C@@H]([C@@H](C)CC)C(=O)N[C@@H](CO)C(=O)N[C@@H](CO)C(=O)N[C@@H](CC(C)C)C(=O)N[C@H](C(=O)O)CSSC[C@@H](C(=O)NCC(=O)NCC(=O)N[C@@H](CO)C(=O)N[C@@H](CCCNC(=N)N)C(=O)N[C@@H](Cc2c[nH]c3ccccc23)C(=O)O)NC(=O)[C@H]([C@@H](C)O)NC(=O)[C@H](Cc2ccccc2)NC(=O)[C@H]([C@@H](C)CC)NC(=O)[C@H](C(C)C)NC(=O)[C@H](C)NC(=O)[C@H](CCCNC(=N)N)NC1=O |  | pIC50 [3]: inactive |
| H-RAAPYGVRLSGREFIRAVIFTSRGSRW-OH | 2090 nM |  |
| CC[C@H](C)[C@H](NC(=O)[C@H](CS)NC(=O)[C@H](CCC(=O)O)NC(=O)[C@H](CCCN=C(N)N)NC(=O)CNC(=O)[C@H](CS)NC(=O)[C@H](CC(C)C)NC(=O)[C@H](CCCN=C(N)N)NC(=O)[C@@H](NC(=O)CNC(=O)[C@H](Cc1ccc(O)cc1)NC(=O)[C@@H]1CCCN1C(=O)[C@H](C)NC(=O)[C@H](C)NC(=O)[C@@H](N)CCCN=C(N)N)C(C)C)C(=O)N[C@@H](CCCN=C(N)N)C(=O)N[C@@H](C)C(=O)N[C@@H](CS)C(=O)N[C@H](C(=O)N[C@@H](Cc1ccccc1)C(=O)N[C@H](C(=O)N[C@@H](CS)C(=O)NCC(=O)NCC(=O)N[C@@H](CO)C(=O)N[C@@H](CCCN=C(N)N)C(=O)N[C@@H](Cc1c[nH]c2ccccc12)C(=O)O)[C@@H](C)O)[C@@H](C)CC (H-RAAPYGVRLCGRECIRACIFTCGGSRW-OH) | > 10000 nM |  |
| CC[C@H](C)[C@@H]1NC(=O)[C@H](Cc2ccccc2)NC(=O)[C@H](CCC(=O)O)NC(=O)[C@H](CCCN=C(N)N)NC(=O)CNC(=O)[C@@H](NC(=O)[C@H](CC(C)C)NC(=O)[C@@H](N)CCCN=C(N)N)CSSC[C@H](N)C(=O)N[C@@H](CCCCN)C(=O)N[C@@H](Cc2c[nH]c3ccccc23)C(=O)NCC(=O)N[C@@H](C)C(=O)N[C@@H](CO)C(=O)N[C@@H](CCCCN)C(=O)N[C@@H](CO)C(=O)N[C@@H](CCC(=O)O)C(=O)N[C@@H]([C@@H](C)CC)C(=O)N[C@@H](CO)C(=O)N[C@@H](CO)C(=O)N[C@@H](CC(C)C)C(=O)N[C@H](C(=O)O)CSSC[C@@H](C(=O)NCC(=O)NCC(=O)N[C@@H](CO)C(=O)N[C@@H](CCCN=C(N)N)C(=O)N[C@@H](Cc2c[nH]c3ccccc23)C(=O)O)NC(=O)[C@H]([C@@H](C)O)NC(=O)[C@H](Cc2ccccc2)NC(=O)[C@H]([C@@H](C)CC)NC(=O)[C@H](C(C)C)NC(=O)[C@H](C)NC(=O)[C@H](CCCN=C(N)N)NC1=O | 112 nM | IC50 [1]: 7.94 nM; IC50 [5]: 5.13 nM; Ki [2]: > 10 µM |
| H-RAAPYGVRLSGREFIRAVIFRSGGSRW-OH | 741 nM |  |
| CC[C@H](C)[C@@H]1NC(=O)[C@H](Cc2ccccc2)NC(=O)[C@H](CCC(=O)O)NC(=O)[C@H](CCCN=C(N)N)NC(=O)CNC(=O)[C@@H](N)CSSC[C@H](N)C(=O)N[C@@H](CCCCN)C(=O)N[C@@H](Cc2c[nH]c3ccccc23)C(=O)NCC(=O)N[C@@H](C)C(=O)N[C@@H](CO)C(=O)N[C@@H](CCCCN)C(=O)N[C@@H](CO)C(=O)N[C@@H](CCC(=O)O)C(=O)N[C@@H]([C@@H](C)CC)C(=O)N[C@@H](CO)C(=O)N[C@@H](CO)C(=O)N[C@@H](CC(C)C)C(=O)N[C@H](C(=O)O)CSSC[C@@H](C(=O)NCC(=O)NCC(=O)N[C@@H](CO)C(=O)N[C@@H](CCCN=C(N)N)C(=O)N[C@@H](Cc2c[nH]c3ccccc23)C(=O)O)NC(=O)[C@H]([C@@H](C)O)NC(=O)[C@H](Cc2ccccc2)NC(=O)[C@H]([C@@H](C)CC)NC(=O)[C@H](C(C)C)NC(=O)[C@H](C)NC(=O)[C@H](CCCN=C(N)N)NC1=O |  | IC50 [1]: 3.47 nM; Ki [2]: > 10 µM |
| H-RAAPYGVRLSGREFIRAVIFTSGGSRW-OH | 2950 nM |  |
| CC[C@H](C)[C@H](NC(=O)[C@H](Cc1ccccc1)NC(=O)[C@H](CCC(=O)O)NC(=O)[C@H](CCCNC(=N)N)NC(=O)CNC(=O)[C@H](CO)NC(=O)[C@H](CC(C)C)NC(=O)[C@H](CCCNC(=N)N)NC(=O)[C@@H](NC(=O)CNC(=O)[C@H](CS)NC(=O)[C@@H]1CCCN1C(=O)[C@H](C)NC(=O)[C@H](C)NC(=O)[C@@H](N)CCCNC(=N)N)C(C)C)C(=O)N[C@@H](CCCNC(=N)N)C(=O)N[C@@H](C)C(=O)N[C@H](C(=O)N[C@H](C(=O)N[C@@H](Cc1ccccc1)C(=O)N[C@@H](CS)C(=O)N[C@@H](CO)C(=O)NCC(=O)NCC(=O)N[C@@H](CO)C(=O)N[C@@H](CCCNC(=N)N)C(=O)N[C@@H](Cc1c[nH]c2ccccc12)C(=O)O)[C@@H](C)CC)C(C)C (H-RAAPCGVRLSGREFIRAVIFCSGGSRW-OH) | > 10000 nM |  |
| CC[C@H](C)[C@H](NC(=O)[C@@H](NC(=O)[C@H](C)NC(=O)[C@H](CCCN=C(N)N)NC(=O)[C@H](CS)NC(=O)[C@H](Cc1ccccc1)NC(=O)[C@H](CCC(=O)O)NC(=O)[C@H](CCCN=C(N)N)NC(=O)CNC(=O)[C@H](CO)NC(=O)[C@H](CC(C)C)NC(=O)[C@H](CCCN=C(N)N)NC(=O)[C@@H](NC(=O)CNC(=O)[C@H](Cc1ccc(O)cc1)NC(=O)[C@@H]1CCCN1C(=O)[C@H](C)NC(=O)[C@H](C)NC(=O)[C@@H](N)CCCN=C(N)N)C(C)C)C(C)C)C(=O)N[C@@H](Cc1ccccc1)C(=O)N[C@H](C(=O)N[C@@H](CS)C(=O)NCC(=O)NCC(=O)N[C@@H](CO)C(=O)N[C@@H](CCCN=C(N)N)C(=O)N[C@@H](Cc1c[nH]c2ccccc12)C(=O)O)[C@@H](C)O (H-RAAPYGVRLSGREFCRAVIFTCGGSRW-OH) | > 10000 nM |  |

From ChEMBL document CHEMBL2029320 (J Med Chem, 2012)
